Data reported in patent US20160095837A1, “MODULATION OF MITOCHONDRIAL CALCIUM UNIPORTER ACTIVITY FOR TREATING AND PREVENTING ARRHYTHMIAS” (priority 2014, published 2016).

Assays:
[1] = system: Ca2+ uptake into mitochondria; conditions: in vitro; read-out: IC50, block of Ca2+ uptake into mitochondria in vitro; cited from earlier work
[2] = target: T1, mitochondrial calcium uniporter (MCU) (Homo sapiens, UniProt Q8NE86); test: Calcium green mitochondrial Ca2+ uptake assay in permeabilized HEK cells; type: cell-based; conditions: Ru360 10 μM or DN-MCU adenovirus (FIG. 6)
T1 construct: We measured mitochondrial Ca^2+ uptake using permeabilized HEK cells; endogenous in cells; host or cells: HEK293 cells, saponin-permeabilized
T1 sequence (Q8NE86 51-351): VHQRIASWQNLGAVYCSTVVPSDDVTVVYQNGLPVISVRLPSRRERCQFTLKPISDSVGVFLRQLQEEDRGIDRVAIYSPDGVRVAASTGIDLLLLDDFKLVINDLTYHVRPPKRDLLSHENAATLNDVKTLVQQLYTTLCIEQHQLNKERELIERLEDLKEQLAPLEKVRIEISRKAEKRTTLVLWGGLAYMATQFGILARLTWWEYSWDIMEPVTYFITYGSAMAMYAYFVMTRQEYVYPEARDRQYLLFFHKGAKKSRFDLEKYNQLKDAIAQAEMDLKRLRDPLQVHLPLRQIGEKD
T1 sequence (Q9H4I9 48-107 partner limits assumed): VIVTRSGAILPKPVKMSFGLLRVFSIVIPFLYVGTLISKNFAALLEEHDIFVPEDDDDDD
Protocol: (§1) SAN cells were placed in Tyrode's solution at 36±0.5° C. and were identified by their characteristic morphology (spindle or spider shape) and spontaneous activity. SAN cells were identified electrophysiologically by spontaneous action potentials with a slow depolarizing phase 4 and the hyperpolarization-activated current (If).^27 Spontaneous action potentials, If and ICa were recorded using the perforated (amphotericin B or β-escin in studies requiring dialysis of Ru360 and/or ATP) patch-clamp technique^28 on single SAN cells at 36±0.5° C. in Tyrode's solution. Intracellular Ca^2+ transients were recorded from single SAN cells using Fura-2 AM excited at 340 nm and 380 nm and emitted and 510 nm. Endogenous NADH from single SAN cells was measured by excitation at 350 nm and recording emitted light at 460 nm.^29 Mitochondrial Ca^2+ was measured at 535 nm from mt-pericam expressing SAN cells exited at 415 nm^20. Mitochondrial Ca^2+ entry was measured in cell membrane permeabilized cardiomyocytes isolated from DN-MCU transgenic, wild type mice and from HEK293 cells using Calcium green-5N^30.
We measured mitochondrial Ca^2+ uptake using permeabilized HEK cells as previously described^30,40. […] Fluorescence was measured using a Tecan plate reader. […] Fluorescence intensity was measured from 50,000 […]/well. […]

[3] = system: other cellular Ca2+ transport processes involved in cardiac muscle contraction; conditions: even at micromolar levels; cited from earlier work
[4] = system: Ca2+ uptake into mitochondria in intact myocytes; conditions: incubation with ~10 μM Ru360 for 30 min; cited from earlier work
HCN4 inward current (If) = test: If current recording in SAN cells; type: cell-based, mouse; conditions: Ru360 dialysis
Protocol: as §1
(§2) Spontaneous action potentials (APs) and If were recorded using the perforated (amphotericin B or β-escin) patch-clamp technique^28 on single SAN cell at 36±0.5° C. in Tyrode's solution (0.5 mM BaCl2 was added to the bath solution when recording If^32). […]

NADH = NADH autofluorescence in SAN cells; type: cell-based, mouse; conditions: Ru360 dialysis
Protocol: as §1
The autofluorescence of endogenous NADH, which derives primarily from mitochondria,^29,35 was measured as described^29. NADH was excited at 350 nm (AT350/SOX, Chroma) and fluorescence was recorded at 460 nm (ET460/50m and T400LP, Chroma). […]

[5] = system: CaV1 L-type Ca2+ current (ICa); test: ICa current recording in SAN cells; type: cell-based, mouse; conditions: Ru360 dialysis
Protocol: as §1, §2

[6] = system: SERCA2a activity ([Ca2+]cyto decline); test: Cytoplasmic Ca2+ transient decay (Fura-2 AM) in SAN cells; type: cell-based, mouse; conditions: Ru360 dialysis
Protocol: as §1
Cytosolic Ca^2+ levels were recorded from Fura-2-loaded cells, excited at wavelengths of 340 and 380 nm, and imaged with a 510 nm long-pass filter. Single isolated SAN cells were loaded with 0.1 μM Fura-2 AM for 20 minutes, and then perfused for 20 minutes to de-esterfy the Fura-2 AM in normal Tyrode's solution. After placement on a recording chamber, the cells were perfused in normal Tyrode's solution at 36° C.±0.5. Spindle-shaped, spontaneously beating cells were chosen for experiments. Action potential recording was performed simultaneously.

Substance: (μ)[(HCO2)(NH3)4Ru]2OCl3) [Ru360]
- IC50 [1]: 0.184 nM
- Mitochondrial Ca2+ entry [2]: similarly effective at preventing
- Effect on other cellular Ca2+ transport processes involved in cardiac muscle contraction [3]: does not affect
- Block of Ca2+ uptake into mitochondria in intact myocytes [4]: completely blocks
- If responses to ISO (HCN4 inward current (If)): not reduced
- ISO-induced increase in NADH fluorescence (NADH): prevented
- ISO-induced ICa increases [5]: not impaired
- Decline in [Ca2+]cyto after ISO ([6]; ISO stimulated): slowed
- Decline in [Ca2+]cyto in the absence of ISO stimulation ([6]; no ISO): did not slow
